Measurements: article PMC11762167, “G Protein-Coupled Receptor 17 Inhibits Glucagon-like Peptide-1 Secretion via a Gi/o-Dependent Mechanism in Enteroendocrine Cells” (Biomolecules, 2024)

Assays:
Format in all cases: cell-based
hGPR17S = molecular target: T1, hGPR17S (Homo sapiens, UniProt Q13304); assay: Membrane β-arrestin recruitment in HEK293 cells transfected with hGPR17S
T1 construct: host or cells: HEK293 cells (ATCC CRL-1573), transient transfection
Method: (§1) Membrane β-arrestin recruitment measurements were conducted using a luminescent membrane β-arrestin recruitment reporter assay. HEK293 cells were seeded into white, opaque, poly-D-lysine-coated 96-well plates and transiently transfected using Lipofectamine 3000 (Thermo Fisher Scientific, Waltham, MA, USA) according to the manufacturer’s protocol on the following day. At 48 h post-transfection, cells were washed twice with assay buffer (HBSS, 20 mM HEPES, pH 7.4) and allowed to equilibrate to room temperature for 15 min in assay buffer. Cells were then loaded with coelenterazine h (Nanolight Technology, Prolume Ltd., Lakeside, AZ, USA; 5 µM final concentration) for 5 min in the dark. Luminescence was read using a SpectraMax iD3 (Molecular Devices) with 1 s integration time. Baseline luminescence was read every 2 min for 6 min. Agonist was added and then luminescence was read every 2 min for 30 min.

mGPR17 [1] = molecular target: T2, mGPR17 (Mus musculus, UniProt Q6NS65); assay: Endpoint cAMP in GLUTag cells expressing mGPR17; set-up: host or cells: GLUTag cells, adenoviral transduction
T2 sequence (Q6NS65 whole entry): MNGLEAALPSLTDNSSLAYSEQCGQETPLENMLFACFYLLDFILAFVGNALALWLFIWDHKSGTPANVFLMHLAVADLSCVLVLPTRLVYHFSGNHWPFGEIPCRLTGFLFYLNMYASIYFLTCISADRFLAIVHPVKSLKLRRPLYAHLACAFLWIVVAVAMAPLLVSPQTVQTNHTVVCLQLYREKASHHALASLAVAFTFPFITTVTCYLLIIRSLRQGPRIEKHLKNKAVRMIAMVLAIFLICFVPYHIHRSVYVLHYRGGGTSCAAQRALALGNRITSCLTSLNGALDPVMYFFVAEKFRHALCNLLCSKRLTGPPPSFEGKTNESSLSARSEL
Method: (§2) GLUTag cells were maintained in Dulbecco’s Modified Eagle Medium (DMEM) supplemented with 10% fetal bovine serum and 1% penicillin–streptomycin in a humidified incubator at 37 °C and 5% CO2. For adenovirus transduction, GLUTag cells were seeded into poly-D-lysine coated 96-well plates or 4-chamber slides. The next day, cells were transduced with adenoviruses (100–1250 viral particles per cell at time of seeding) as indicated. After 24–30 h, adenovirus-containing media was changed to serum-free growth media for overnight serum starvation. The following day, GLUTag cells were used for cAMP or calcium signaling assays, GLP-1 secretion assays, or immunostaining and imaging.
Endpoint cAMP measurements were conducted as follows. GLUTag cells were seeded into poly-D-lysine-coated 96-well plates and transduced with adenovirus as specified above and then tested for cAMP signaling. Medium was removed and cells were washed with cAMP stimulation buffer (Hanks’ balanced salt solution (HBSS), 20 mM HEPES, pH 7.4) and then incubated in cAMP stimulation buffer for 30 min at 37 °C and 5% CO2. Cells were then treated for 30 min with agonist and forskolin in the presence of 500 µM IBMX at 37 °C and 5% CO2. Stimulation buffer was then decanted, and cAMP lysis buffer (50 mM HEPES, 10 mM CaCl2, 0.35% Triton X-100, and 500 µM IBMX) was added and shaken at 700 rpm for 1 h. Lysate was transferred to a 384-well plate, and the cAMP levels were quantified using the Cisbio HTRF cAMP (Gi kit; Revvity, Waltham, MA, USA) according to the manufacturer’s protocol.

hGPR17L-V96M = molecular target: T3, hGPR17L-V96M (Homo sapiens, UniProt Q13304, V96M); assay: GLP-1 secretion from GLUTag cells expressing hGPR17L-V96M; settings: 100 µM MDL29,951, GLUTag hGPR17L-V96M
T3 construct: host or cells: GLUTag cells, adenoviral transduction
T3 sequence (Q13304 whole entry V96M): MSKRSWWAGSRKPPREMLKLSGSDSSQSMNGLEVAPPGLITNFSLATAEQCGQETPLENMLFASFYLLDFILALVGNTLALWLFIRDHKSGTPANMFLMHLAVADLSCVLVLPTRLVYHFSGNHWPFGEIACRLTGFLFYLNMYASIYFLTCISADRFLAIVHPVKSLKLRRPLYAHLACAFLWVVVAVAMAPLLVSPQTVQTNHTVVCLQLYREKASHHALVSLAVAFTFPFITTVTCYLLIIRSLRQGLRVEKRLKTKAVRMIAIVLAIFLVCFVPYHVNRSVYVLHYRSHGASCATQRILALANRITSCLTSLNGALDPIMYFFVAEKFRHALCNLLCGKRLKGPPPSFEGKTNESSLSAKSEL
Method: as §2
GLUTag cells were seeded into poly-D-lysine-coated 96-well plates and transduced with adenovirus as specified above and then tested for GLP-1 secretion. Medium was removed and cells were washed two times with GLP-1 secretion buffer (138 mM NaCl, 4.5 mM KCl, 4.2 mM NaHCO3, 2.5 mM CaCl2, 1.2 mM MgCl2, 10 mM HEPES, 1 mM glucose, and 0.1% bovine serum albumin, pH 7.4). […] Plates were then centrifuged at 300× g for 1 min at 4 °C, and 75 µL of the supernatant was removed and frozen at −80 °C until subsequent GLP-1 quantification. Total GLP-1 was quantified using the Meso Scale Discovery Total GLP-1 V-PLEX kit (Rockville, MD, USA; K1503PD) according to manufacturer’s instructions. […]

hGPR17L [2] = molecular target: T4, hGPR17L (Homo sapiens, UniProt Q13304); assay: Live-cell GloSensor cAMP in GLUTag cells transfected with hGPR17L; set-up: host or cells: GLUTag cells (murine enteroendocrine line), adenoviral transduction; settings: MDL29,951 alone or together with forskolin
T4 sequence (Q13304 whole entry): as the sequence (Q13304 whole entry V96M) above, with M96V counted along it
Method: (§3) Live-cell, real-time cAMP measurements were performed using Promega (Madison, WI, USA) GloSensor cAMP luminescent biosensor technology. Glosensor cAMP experiments were conducted as previously described in GLUTag cells and HEK293 cells.

mGPR17 [3] = molecular target: T2, mGPR17; assay: Membrane β-arrestin recruitment in HEK293 cells transfected with mGPR17
Method: as §1

hGPR17L [4] = molecular target: T4, hGPR17L; assay: GloSensor cAMP in HEK293 cells transfected with hGPR17L; set-up: host or cells: GLUTag cells (murine enteroendocrine line), adenoviral transduction
Method: HEK293 cells were maintained and transfected as previously described.
as §3

[5] = read-out: β-arrestin Potency EC50

T1 sequence (Q13304 29-367): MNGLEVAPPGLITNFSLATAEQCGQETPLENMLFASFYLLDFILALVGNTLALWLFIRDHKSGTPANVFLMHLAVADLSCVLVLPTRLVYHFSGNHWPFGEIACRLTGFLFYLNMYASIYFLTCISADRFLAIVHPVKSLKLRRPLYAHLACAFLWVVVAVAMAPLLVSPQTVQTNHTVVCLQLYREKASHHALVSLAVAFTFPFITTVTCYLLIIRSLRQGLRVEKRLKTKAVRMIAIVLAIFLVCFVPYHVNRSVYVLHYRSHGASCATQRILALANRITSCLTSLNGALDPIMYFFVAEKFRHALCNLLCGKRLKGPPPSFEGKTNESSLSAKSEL

SMILES: O=C(O)CCc1c(C(=O)O)[nH]c2cc(Cl)cc(Cl)c12 [MDL29,951]
- β-arrestin Emax (Peak ΔRLU/RLU) (hGPR17S): 0.50±0.04
- β-arrestin Potency (pEC50) (hGPR17S): 6.62±0.08
- EC50 (hGPR17S; [5]): 240 nM
- concentration of maximal inhibition of forskolin-stimulated cAMP (mGPR17 [1]; 10 µM forskolin, GLUTag mGPR17): 1 µM
- Mean Diff. (Tukey's multiple comparisons test), cAMP, Row 10 vs. Row 11 (mGPR17 [1]; mGPR17 (100), log [MDL29,951] (M) -4.0 vs. Vehicle, Forskolin stimulation, Figure 4B): -19.04
- Mean Diff. (Tukey's multiple comparisons test), cAMP, Row 9 vs. Row 11 (mGPR17 [1]; mGPR17 (100), log [MDL29,951] (M) -4.6 vs. Vehicle, Forskolin stimulation, Figure 4B): -22.19
- Mean Diff. (Tukey's multiple comparisons test), cAMP, Row 8 vs. Row 11 (mGPR17 [1]; mGPR17 (100), log [MDL29,951] (M) -5.2 vs. Vehicle, Forskolin stimulation, Figure 4B): -23.87
- Mean Diff. (Tukey's multiple comparisons test), cAMP, Row 7 vs. Row 11 (mGPR17 [1]; mGPR17 (100), log [MDL29,951] (M) -5.8 vs. Vehicle, Forskolin stimulation, Figure 4B): -30.13
- Mean Diff. (Tukey's multiple comparisons test), cAMP, Row 6 vs. Row 11 (mGPR17 [1]; mGPR17 (100), log [MDL29,951] (M) -6.4 vs. Vehicle, Forskolin stimulation, Figure 4B): -28.75
- Mean Diff. (Tukey's multiple comparisons test), cAMP, Row 5 vs. Row 11 (mGPR17 [1]; mGPR17 (100), log [MDL29,951] (M) -7.0 vs. Vehicle, Forskolin stimulation, Figure 4B): -21.6
- Mean Diff. (Tukey's multiple comparisons test), cAMP, Row 4 vs. Row 11 (mGPR17 [1]; mGPR17 (100), log [MDL29,951] (M) -7.6 vs. Vehicle, Forskolin stimulation, Figure 4B): -16.65
- Mean Diff. (Tukey's multiple comparisons test), cAMP, Row 3 vs. Row 11 (mGPR17 [1]; mGPR17 (100), log [MDL29,951] (M) -8.2 vs. Vehicle, Forskolin stimulation, Figure 4B): -3.513
- Mean Diff. (Tukey's multiple comparisons test), cAMP, Row 2 vs. Row 11 (mGPR17 [1]; mGPR17 (100), log [MDL29,951] (M) -8.8 vs. Vehicle, Forskolin stimulation, Figure 4B): -3.853
- Mean Diff. (Tukey's multiple comparisons test), cAMP, Row 1 vs. Row 11 (mGPR17 [1]; mGPR17 (100), log [MDL29,951] (M) -9.4 vs. Vehicle, Forskolin stimulation, Figure 4B): -5.46
- effect on F/I-stimulated GLP-1 secretion (hGPR17L-V96M): no effect
- pattern of cAMP modulation, live-cell bioluminescent cAMP biosensor (hGPR17L [2]): biphasic pattern
- β-arrestin Emax (Peak ΔRLU/RLU) (mGPR17 [3]): 0.54±0.03
- β-arrestin Potency (pEC50) (mGPR17 [3]): 6.69±0.10
- EC50 (mGPR17 [3]; [5]): 200 nM
- cAMP Maximum Inhibition (% Inhibition) (hGPR17L [4]; 3 µM forskolin): 48±2.9%
- cAMP Potency (pEC50) (reversal of inhibition) (hGPR17L [4]; 3 µM forskolin): 5.40±0.09
- cAMP Potency (pIC50) (hGPR17L [4]; 3 µM forskolin): 8.52±0.08
- EC50 (hGPR17L [4]; 3 µM forskolin, read-out: cAMP Potency EC50 (reversal of inhibition)): 4000 nM
- IC50 (hGPR17L [4]; 3 µM forskolin-stimulated GloSensor cAMP, read-out: cAMP Potency IC50): 3 nM
- cAMP Effect of 100 μM MDL (% Inhibition) (hGPR17L [4]; 100 μM MDL29,951, 3 µM forskolin): 9.0±2.1%
